Literature values in patent US9585842B2, “Sustained release guanfacine HCL formulation” (SALMON PHARMA GMBH, priority 2013, dated 2017).
Where a name gives a salt, the structure may show the parent alone.

Conditions: low pH versus higher pH values

Which pH dependent solubility does the source give for `N=C(N)NC(=O)Cc1c(Cl)cccc1Cl` [Guanfacine hydrochloride] here?
The pH dependent solubility was “more soluble at low pH values than higher pH values”.
